ChEMBL document CHEMBL1201862, “PubChem BioAssay data set” (2004)
Active and inactive are the calls of the source.

Columns and labels:
[1] = target: T1, Heat shock factor protein 1 (Mus musculus, UniProt P38532); test: inhibition of MG132-induced HSE-luciferase signal, confirmation, cell-based, NIH3T3, luminescence, dose retest (AID 2382); type: functional;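 further: NIH3T3 fibroblasts with HSF1-driven luciferase reporter stressed by proteasome inhibitor MG132; luminescence from HSF1-driven luciferase expression after 8 hours of MG132 stress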
T1 sequence (P38532 whole entry): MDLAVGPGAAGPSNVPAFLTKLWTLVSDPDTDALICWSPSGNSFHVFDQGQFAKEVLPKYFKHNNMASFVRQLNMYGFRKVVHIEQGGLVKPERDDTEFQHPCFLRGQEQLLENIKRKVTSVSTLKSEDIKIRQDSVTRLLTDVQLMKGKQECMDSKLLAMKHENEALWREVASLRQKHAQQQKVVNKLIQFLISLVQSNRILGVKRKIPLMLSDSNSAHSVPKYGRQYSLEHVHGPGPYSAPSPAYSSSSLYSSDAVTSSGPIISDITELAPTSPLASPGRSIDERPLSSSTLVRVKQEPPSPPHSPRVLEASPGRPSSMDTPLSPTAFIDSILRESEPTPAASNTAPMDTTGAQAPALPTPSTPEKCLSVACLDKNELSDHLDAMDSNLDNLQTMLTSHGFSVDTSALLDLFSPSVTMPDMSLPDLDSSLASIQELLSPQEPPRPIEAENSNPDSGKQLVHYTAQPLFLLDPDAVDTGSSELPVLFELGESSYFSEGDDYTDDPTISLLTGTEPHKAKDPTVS

[2] = target: T2, Short transient receptor potential channel 4 (Mus musculus, UniProt Q9QUQ5); test: mouse TRPC4 channel inhibitors, dose response, cell-based, HEK293 TRPC4/mu-opioid, Fluo-4 calcium (AID 434942); type: functional;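 further: potency of inhibitors blocking the TRPC4 calcium response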
T2 sequence (Q9QUQ5 whole entry): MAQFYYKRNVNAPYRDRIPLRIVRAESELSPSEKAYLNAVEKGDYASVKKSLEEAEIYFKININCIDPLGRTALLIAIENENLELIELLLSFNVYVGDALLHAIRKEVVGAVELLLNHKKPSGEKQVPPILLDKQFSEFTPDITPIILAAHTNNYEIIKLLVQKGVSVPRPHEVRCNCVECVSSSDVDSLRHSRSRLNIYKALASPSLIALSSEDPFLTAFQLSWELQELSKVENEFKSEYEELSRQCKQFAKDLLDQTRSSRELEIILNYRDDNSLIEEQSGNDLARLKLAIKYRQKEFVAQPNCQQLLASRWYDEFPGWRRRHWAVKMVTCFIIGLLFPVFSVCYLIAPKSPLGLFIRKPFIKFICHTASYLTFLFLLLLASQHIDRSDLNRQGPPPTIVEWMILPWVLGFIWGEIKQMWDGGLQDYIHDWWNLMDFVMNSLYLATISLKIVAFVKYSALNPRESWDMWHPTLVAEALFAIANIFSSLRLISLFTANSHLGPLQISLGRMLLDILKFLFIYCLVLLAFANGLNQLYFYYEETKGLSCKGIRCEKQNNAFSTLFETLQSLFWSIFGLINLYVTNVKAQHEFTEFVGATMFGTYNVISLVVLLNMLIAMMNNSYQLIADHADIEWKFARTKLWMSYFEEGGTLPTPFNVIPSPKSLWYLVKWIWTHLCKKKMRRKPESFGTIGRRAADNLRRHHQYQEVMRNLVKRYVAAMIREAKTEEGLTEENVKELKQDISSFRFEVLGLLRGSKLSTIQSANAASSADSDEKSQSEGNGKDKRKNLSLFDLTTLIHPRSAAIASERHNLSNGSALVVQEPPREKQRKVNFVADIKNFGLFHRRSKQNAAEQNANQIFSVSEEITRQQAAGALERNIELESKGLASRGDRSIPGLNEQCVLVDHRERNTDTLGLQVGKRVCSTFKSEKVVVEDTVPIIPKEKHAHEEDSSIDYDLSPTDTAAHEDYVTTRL

[3] = target: T2, Short transient receptor potential channel 4; test: mouse TRPC4 channel activators, dose response, cell-based, HEK293 TRPC4/mu-opioid, Fluo-4 calcium (AID 434937); type: functional
[4] = target: G-protein coupled receptor 55 (Homo sapiens, UniProt Q9Y2T6); test: GPR55 antagonists blocking LPI-driven arrestin recruitment, primary screen, imaging, U2OS, beta-arrestin-GFP, LPI agonist (AID 2013); type: functional;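 further: antagonist potency measured as reduced agonist-driven arrestin aggregation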
[5] = A Cell Based Secondary Assay To Explore Cytotoxicity of Compounds that Sensitize Mycobacterium Tuberculosis to Beta-Lactam Antibiotics.; type: functional
Bcl-2-related protein A1 = target: T3, Bcl-2-related protein A1 (Mus musculus, UniProt Q07440); type: functional;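 further: confirmatory dose–response counterscreen on Bfl-1, used to check hits from a UBC13 polyubiquitin inhibitor campaign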
T3 sequence (Q07440 whole entry): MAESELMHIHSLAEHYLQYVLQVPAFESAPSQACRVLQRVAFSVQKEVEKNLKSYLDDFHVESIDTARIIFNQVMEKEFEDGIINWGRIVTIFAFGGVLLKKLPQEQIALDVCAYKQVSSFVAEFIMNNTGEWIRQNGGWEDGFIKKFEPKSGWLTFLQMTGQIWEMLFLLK

[6] = target: T4, Ubiquitin-conjugating enzyme E2 N (Homo sapiens, UniProt P61088); type: functional
T4 sequence (P61088 whole entry): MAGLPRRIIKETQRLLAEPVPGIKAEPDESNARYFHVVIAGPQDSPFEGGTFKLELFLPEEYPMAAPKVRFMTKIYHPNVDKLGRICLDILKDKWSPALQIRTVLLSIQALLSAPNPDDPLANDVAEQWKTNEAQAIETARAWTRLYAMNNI

[7] = target: T4, Ubiquitin-conjugating enzyme E2 N; type: functional; remark: listed apart in the source
INS1 = test: beta cell apoptosis inhibitors, cytokine rescue, dose response, luminescence, retest (AID 449756); type: functional, cell-based; conditions: Rattus norvegicus;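 further: cell death triggered by IL-1 beta plus TNF-alpha plus IFN-gamma mixture; protective hits raise ATP signal compared with cytokine alone wells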
[8] = growth suppression of PTEN-null colon cells, dose response, cell-based, HCT116 PTEN knockout (AID 1047); type: functional;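 further: HCT116 colon tumor cells with PTEN knocked out; cells exposed to compound for 60 hours before readout; potency for loss of cell viability measured by luminescence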
[9] = growth suppression of beta-catenin-knockout colon cells, dose response, cell-based, HCT116, human colon tumor (AID 1045); type: functional;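 further: HCT116 colon tumor cells with beta catenin knocked out; cells exposed to compound for 60 hours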
[10] = target: T5, Mannose-6-phosphate isomerase (Homo sapiens, UniProt P34949); test: PMI enzyme inhibitors, confirmation, biochemical, fluorescence intensity (AID 1535)
T5 sequence (P34949 whole entry): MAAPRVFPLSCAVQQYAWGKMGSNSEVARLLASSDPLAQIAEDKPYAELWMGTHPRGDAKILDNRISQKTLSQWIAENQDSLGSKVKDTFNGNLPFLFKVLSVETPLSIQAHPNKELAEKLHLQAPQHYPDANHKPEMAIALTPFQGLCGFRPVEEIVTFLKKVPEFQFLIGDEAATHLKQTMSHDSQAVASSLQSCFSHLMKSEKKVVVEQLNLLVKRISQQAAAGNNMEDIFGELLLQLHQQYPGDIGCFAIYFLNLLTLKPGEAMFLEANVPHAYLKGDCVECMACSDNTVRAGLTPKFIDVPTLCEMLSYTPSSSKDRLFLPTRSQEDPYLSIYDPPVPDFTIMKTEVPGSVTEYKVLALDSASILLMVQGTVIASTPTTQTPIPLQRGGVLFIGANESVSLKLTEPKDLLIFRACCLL

Phosphomannomutase 2 = target: T6, Phosphomannomutase 2 (Homo sapiens, UniProt O15305); test: Counter screen SAR assay for PMM2 inhibitors via a fluorescence intensity assay. [Related pubchem assays (depositor defined):AID1545, AID1574]
T6 sequence (O15305 whole entry): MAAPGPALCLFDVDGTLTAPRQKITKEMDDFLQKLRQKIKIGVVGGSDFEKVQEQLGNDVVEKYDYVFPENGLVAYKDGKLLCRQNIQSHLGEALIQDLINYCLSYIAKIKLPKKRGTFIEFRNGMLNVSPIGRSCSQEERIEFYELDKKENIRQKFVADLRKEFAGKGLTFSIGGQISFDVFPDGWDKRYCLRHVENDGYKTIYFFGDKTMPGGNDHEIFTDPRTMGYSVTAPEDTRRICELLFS

[11] = target: DNA dC->dU-editing enzyme APOBEC-3A (Homo sapiens, UniProt P31941); test: APOBEC3A DNA deaminase inhibitors, dose response, biochemical (AID 504722); type: functional
[12] = target: DNA dC->dU-editing enzyme APOBEC-3G (Homo sapiens, UniProt Q9HC16); test: Dose Response confirmation of small molecule APOBEC3G DNA Deaminase Inhibitors via a fluorescence-based single-stranded DNA deaminase assay. [Related pubchem assays (depositor defined):AID493012, AID493028]; type: functional
Coagulation factor XII = target: T7, Coagulation factor XII (Homo sapiens, UniProt P00748); type: functional;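 further: activated factor XIIa alpha cleaving a fluorogenic AMC peptide substrate; inhibitor potency from loss of enzyme activity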
T7 sequence (P00748 whole entry): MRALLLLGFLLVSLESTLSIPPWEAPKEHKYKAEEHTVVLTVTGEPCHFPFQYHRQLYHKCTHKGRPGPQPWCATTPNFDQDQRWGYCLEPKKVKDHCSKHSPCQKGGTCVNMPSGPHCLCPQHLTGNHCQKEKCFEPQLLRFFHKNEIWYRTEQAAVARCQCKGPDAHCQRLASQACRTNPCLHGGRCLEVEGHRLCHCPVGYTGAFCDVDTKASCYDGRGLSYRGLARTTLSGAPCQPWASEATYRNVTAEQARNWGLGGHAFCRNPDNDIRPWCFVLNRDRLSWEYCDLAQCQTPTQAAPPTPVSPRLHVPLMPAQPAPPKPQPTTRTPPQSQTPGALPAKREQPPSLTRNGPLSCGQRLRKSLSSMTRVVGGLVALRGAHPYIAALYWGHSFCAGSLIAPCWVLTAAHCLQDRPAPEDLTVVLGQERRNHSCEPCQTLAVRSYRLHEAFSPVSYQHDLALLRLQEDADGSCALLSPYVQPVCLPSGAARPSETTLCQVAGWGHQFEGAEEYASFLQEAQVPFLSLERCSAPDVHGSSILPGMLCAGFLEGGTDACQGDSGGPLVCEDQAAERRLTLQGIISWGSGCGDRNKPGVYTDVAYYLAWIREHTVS

[13] = target: T8, Rac GTPase-activating protein 1 (Homo sapiens, UniProt Q9H0H5); test: MgcRacGAP GTPase-activating activity inhibitors, confirmation, biochemical, ADP Hunter fluorescence, primary and confirmatory (AID 624330); type: functional
T8 sequence (Q9H0H5 whole entry): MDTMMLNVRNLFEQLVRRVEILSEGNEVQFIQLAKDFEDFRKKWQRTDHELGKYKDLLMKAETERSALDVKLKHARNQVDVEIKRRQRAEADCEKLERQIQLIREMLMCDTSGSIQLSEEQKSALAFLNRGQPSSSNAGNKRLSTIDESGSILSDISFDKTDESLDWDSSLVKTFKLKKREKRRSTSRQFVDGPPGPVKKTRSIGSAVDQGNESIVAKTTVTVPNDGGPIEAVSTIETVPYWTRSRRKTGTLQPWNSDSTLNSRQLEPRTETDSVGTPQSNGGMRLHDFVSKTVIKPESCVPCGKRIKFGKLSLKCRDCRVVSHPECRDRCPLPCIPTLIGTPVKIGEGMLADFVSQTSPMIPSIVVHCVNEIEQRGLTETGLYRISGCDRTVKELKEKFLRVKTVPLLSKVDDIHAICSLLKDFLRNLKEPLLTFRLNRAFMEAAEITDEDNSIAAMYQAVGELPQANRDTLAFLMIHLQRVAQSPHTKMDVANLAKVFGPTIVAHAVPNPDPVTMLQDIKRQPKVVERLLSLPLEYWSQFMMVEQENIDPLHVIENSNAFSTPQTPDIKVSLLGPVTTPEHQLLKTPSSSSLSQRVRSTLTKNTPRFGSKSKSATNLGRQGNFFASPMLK

G-protein coupled receptor 55, sequence (Q9Y2T6 whole entry): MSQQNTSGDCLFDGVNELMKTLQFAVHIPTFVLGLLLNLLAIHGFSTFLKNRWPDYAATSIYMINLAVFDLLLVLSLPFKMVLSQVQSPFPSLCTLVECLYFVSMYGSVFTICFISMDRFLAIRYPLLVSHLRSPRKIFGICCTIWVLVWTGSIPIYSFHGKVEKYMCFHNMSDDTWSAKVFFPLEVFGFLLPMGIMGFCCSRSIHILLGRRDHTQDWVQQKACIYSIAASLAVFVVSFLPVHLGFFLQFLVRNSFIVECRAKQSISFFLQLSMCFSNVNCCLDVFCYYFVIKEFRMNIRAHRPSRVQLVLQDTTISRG
DNA dC->dU-editing enzyme APOBEC-3A, sequence (P31941 whole entry): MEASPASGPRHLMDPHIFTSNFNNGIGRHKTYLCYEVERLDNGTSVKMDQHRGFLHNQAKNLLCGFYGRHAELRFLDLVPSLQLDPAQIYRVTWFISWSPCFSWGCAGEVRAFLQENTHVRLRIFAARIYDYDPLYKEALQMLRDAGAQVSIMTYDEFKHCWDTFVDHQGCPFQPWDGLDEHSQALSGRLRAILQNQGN
DNA dC->dU-editing enzyme APOBEC-3G, sequence (Q9HC16 whole entry): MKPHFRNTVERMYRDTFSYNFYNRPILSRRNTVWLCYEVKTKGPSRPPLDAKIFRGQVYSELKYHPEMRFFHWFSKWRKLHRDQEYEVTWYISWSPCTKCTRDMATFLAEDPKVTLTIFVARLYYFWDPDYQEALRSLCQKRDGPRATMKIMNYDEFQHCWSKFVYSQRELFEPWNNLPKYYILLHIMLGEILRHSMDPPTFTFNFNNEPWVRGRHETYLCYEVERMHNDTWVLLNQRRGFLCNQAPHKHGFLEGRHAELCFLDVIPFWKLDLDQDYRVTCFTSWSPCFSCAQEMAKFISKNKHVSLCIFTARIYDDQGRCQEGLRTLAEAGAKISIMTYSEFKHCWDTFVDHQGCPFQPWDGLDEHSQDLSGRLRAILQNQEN

COc1ccc(/C=C/C(=O)Nc2ccccc2C(=O)NCC(c2ccc(OC)cc2)N(C)C)cc1 (stereo unspecified)
EC50 [1]: > 195 µM (not active)
EC50 [2]: 0.188 µM (active)
EC50 [3]: 0.421 µM (active)

CCOC(=O)c1c(NC(=O)C2=C(C)N=C(S)NC2c2ccc(CC)cc2)sc(C)c1C (stereo unspecified)
IC50 [4]: 1.64 µM (active)

COc1ccc(NC(=O)CN2CCN(C3c4ccccc4-c4ccccc43)CC2)c(OC)c1
CC50 [5]: > 40 µM (active)
IC50 [4]: 2.19 µM (active)

CCN1CCN(Cc2ccc(NC(=O)c3cc(NC(=O)c4cncc(-c5ccc(C#N)cc5)c4)cc(OC)c3)cc2C(F)(F)F)CC1
EC50 [1]: > 195 µM (not active)
IC50 (Bcl-2-related protein A1): 8.76 µM (active)
IC50 [6]: 10.9 µM (active)
IC50 [7]: 6.69 µM (active)
AC50 (INS1): 8.2 µM (active)

COc1ccc(OCC(O)Cn2c(=N)n(Cc3ccccc3)c3ccccc32)cc1 (stereo unspecified)
IC50 [4]: 3.61 µM (active)
EC50 [8]: 7.31 µM (active)
EC50 [9]: 7.38 µM (active)

Cc1c(Cl)cccc1/N=c1\ssnc1Cl
IC50 [10]: > 100 µM (inactive)
IC50 (Phosphomannomutase 2): > 100 µM (inactive)

O=[N+]([O-])c1c(Br)cccc1/N=c1\ssnc1Cl
IC50 [10]: 7.37 µM (active)
IC50 (Phosphomannomutase 2): 4.8 µM (active)

Cc1c(CN2CCC(n3nccc3NC(=O)C3CC3)CC2)[nH]c2ccccc12
EC50 [3]: 0.596 µM (active)

Clc1nss/c1=N\c1cnc2ccccc2c1
IC50 [10]: 67.2 µM (active)
IC50 (Phosphomannomutase 2): > 100 µM (inactive)

COc1cc2c(cc1OC)C(C)N(C(=O)C(NC(=O)c1ccccc1)C(C)C)CC2 (stereo unspecified)
EC50 [3]: 5.96 µM (active)

Sc1nnc(-c2ccncc2)n1/N=C/C=C/c1ccco1
IC50 [11]: 26.7 µM (active)
IC50 [12]: 2.54 µM (active)
IC50 (Coagulation factor XII): 45.3 µM (active)
IC50 [13]: 81.9 µM (active)
